Bridge positions count the residues as written; N and C are the ends. Ends that are not written are not given here.

What all share (assay type): cell-based, human
Common to all, as to settings: 10 μM ISTX-I; 50 ms step to -10 mV from -80 mV

The test system of one test is hNav1.6. Briefly: Whole-cell patch clamp, hNav1.6 in HEK293T cells. As for the experimental part: (§1) HEK293T (human embryonic kidney) cells were grown in DMEM containing 10% heat-inactivated FBS at 37 °C in a 5% CO2 incubator. The cDNA genes encoding human (h)Nav1.1, (h)Nav1.2, (h)Nav1.3, (h)Nav1.4, (h)Nav1.5, (h)Nav1.6 and (h)Nav1.7 were transiently transfected into HEK293T cells for electrophysiology using Lipofectamine-2000 (Invitrogen) in serum-reduced medium (Opti-MEM, Invitrogen) following the manufacturer’s instructions. The auxiliary subunits hβ1 and enhanced green florescent protein plasmids were cotransfected into HEK293T cells to increase the current density and efficiently select cells with green florescent protein for whole-cell patch-clamp recordings. After 12 h, the HEK293T cells were used for electrophysiological analysis.
(§2) DRG neurons with a large diameter (>[…]) and those with a relatively small diameter (<[…]) were chosen by measuring TTX-s and TTX-r currents, respectively. […] Potassium, calcium, and sodium currents were recorded in experimental cells using whole-cell patch-clamp recordings at room temperature, which were performed with an HEK EPC10 patch-clamp amplifier. […] Experimental data were acquired and analyzed using the programs patch master and Sigmaplot 9.0 (Sigma, USA). […]
(§3) Currents were recorded from experimental cells using whole-cell patch clamptechnique at room temperature (22–25 °C). […]

Another test has as its system hNav1.4. Briefly: Whole-cell patch clamp, hNav1.4 in HEK293T cells. As for the experimental part:
as §1, §2, §3

In a further test the test system is hNav1.5. Briefly: Whole-cell patch clamp, hNav1.5 in HEK293T cells. As for the experimental part: as §1, §2, §3
For another test, the system named is hNav1.3. Briefly: Whole-cell patch clamp, hNav1.3 in HEK293T cells. As for the experimental part: as §1, §2, §3

As to “LCSENGDCAADECCVDTVFEGDMVTRSCEKTTGNFTECPGLTPIA (disulfide 2-14, 8-28, 13-38) [ISTX-I]”, the “inhibition of Nav1.6 currents” value in the test with hNav1.6 stood at 10%. The “effect on hNav1.4” value in the test on hNav1.4 is given as “no effect”. For the same sequence, in the test on hNav1.5, the “effect on hNav1.5” value was “no effect”. Besides, the “effect on hNav1.3” value with hNav1.3 is given as “no effect”.

Values taken from article PMC4942781, “A sodium channel inhibitor ISTX-I with a novel structure provides a new hint at the evolutionary link between two toxin folds” (Scientific Reports, 2016).
